In PubChem BioAssay (NCI):
Values joined by “and” are separate entries in the source; they are usually repeats but may differ in a detail not shown here. Identical values can stand only once.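 Briefly, cells in 96-well plates were exposed to five compound concentrations for 48 h, and endpoints were estimated by linear interpolation. GI50 = concentration required for 50% inhibition of growth. TGI: concentration producing complete growth inhibition.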

Assays:
Experiment in all cases: NCI tumour cell line growth inhibition, 48 h
MDA-N = test system: MDA-N
HOP-18 NSCLC = test system: HOP-18 NSCLC
KM20L2 colon = test system: KM20L2 colon
SNB-78 CNS = test system: SNB-78 CNS
DLD-1 colon = test system: DLD-1 colon
XF 498 CNS = test system: XF 498 CNS
M19-MEL melanoma = test system: M19-MEL melanoma
RXF-631 renal = test system: RXF-631 renal
P388/ADR leukemia = test system: P388/ADR leukemia
SN12K1 renal = test system: SN12K1 renal
P388 leukemia = test system: P388 leukemia

Structure (SMILES) | TGI (MDA-N) | TGI (HOP-18 NSCLC) | TGI (KM20L2 colon) | TGI (SNB-78 CNS) [µM] | TGI (DLD-1 colon) | TGI (XF 498 CNS) | TGI (M19-MEL melanoma) | TGI (RXF-631 renal) [µM] | further results
CCn1c(CCl)nc2c1C(=O)c1ccccc1C2=O | 3.85 µM | – | – | – | – | – | – | – | –
CCc1nc(N)nc(N)c1-c1ccc(Cl)c(N=[N+]=[N-])c1 | 53.9 µM and > 84.9 µM | > 100 µM | > 100 µM | > 100 | > 100 µM | 88.1 µM | > 100 µM | – | GI50 (MDA-N): 0.812 µM and 5.03 µM
COc1ccc(NCC(=O)Nn2c(-c3ccccc3)nc3ccccc3c2=O)cc1 | > 100 µM | – | – | – | – | – | – | – | –
CCCCCCCCCCCc1c(O)c(=O)c2c(oc3c(=O)c(CCCCCCCCCCC)c(O)c(=O)c3n2-c2ccc(N(C)C)cc2)c1=O | – | 42.9 µM | 38.5 µM | > 100 | 50.5 µM | 37.9 µM | – | – | –
C#CCN(Cc1ccc2nc(-c3ccccc3)c(N)nc2c1)c1cc(OC)c(OC)c(OC)c1 | – | – | > 100 µM | 78.9 | – | 59.5 µM | > 100 µM | – | –
CC(=O)NC1=NC(=O)/C(=C/c2ccc(/C=C3/C(=O)N=C(NC(C)=O)N3C)cc2)N1C | > 100 µM | – | – | – | – | – | – | – | –
COc1ccc(C(=O)C#Cc2c[nH]c(=O)[nH]c2=O)cc1 | – | > 50.1 µM | 22.8 µM | 37.9 | 24.6 µM | – | 21.9 µM | 34.1 | –
c1ccc2c(c1)cc1n2CCc2c-1[nH]c1ccccc21 | > 10 µM | – | – | – | – | – | – | – | –
COc1cccc(SSc2cccc(OC)c2C(=O)O)c1C(=O)O | – | > 100 µM | > 100 µM | > 100 | > 100 µM | > 100 µM | > 100 µM | > 100 | –
N#Cc1cccc(C=NC23CC4CC(CC(C4)C2)C3)c1 | – | – | > 100 µM | > 100 | – | – | > 100 µM | – | –
c1ccc(OCc2nnc3n2N=C(c2ccccc2)CS3)cc1 | – | – | – | > 100 | > 100 µM | > 100 µM | > 100 µM | – | –
Cc1nc2cc(Nc3ccccc3C(=O)O)ccc2s1 | – | > 100 µM | > 100 µM | – | > 100 µM | – | > 100 µM | – | –
COc1ccc(NC(=O)CC(=O)n2nc(C)c(N=Nc3ccccc3C(=O)O)c2C)cc1 | – | – | > 100 µM | > 100 | > 100 µM | > 100 µM | > 100 µM | – | –
C[C@H](CCC1SC1(C)C)C1CCC2(C)C3=C(CC[C@]12C)[C@@]1(C)CC[C@H](O)C(C)(C)C1CC3 (stereo partly drawn) | – | > 100 µM | > 100 µM | – | > 100 µM | > 100 µM | – | – | –
CC(=O)NC(C=O)C(O[C@H](C)C(=O)NC(C)C(=O)NC(CCC(N)=O)C(=O)OCc1ccccc1)C(O)C(O)COC(=O)CCNc1c2ccccc2nc2cccc([N+](=O)[O-])c12 (stereo partly drawn) | – | > 100 µM | 5.58 µM | 14.4 | 16.5 µM | 3.71 µM | 4.02 µM | – | –
COC1CC(N)C(O)C(C)O1 (stereo not drawn) | > 100 µM | – | – | – | – | – | – | – | –
Cc1cc(Cl)ccc1C(=O)c1ccc2ccccc2c1C(=O)O | > 100 µM | – | – | – | – | – | – | – | –
N#CC1=C(O)NC(O)=C(C#N)C1c1ccc(C2C(C#N)=C(O)NC(O)=C2C#N)cc1 | – | > 100 µM | > 100 µM | > 100 | > 100 µM | > 100 µM | > 100 µM | > 100 | –
COC(=O)c1cc(OC)c(OC)c(OC)c1-c1cc2c(cc1C=O)OCO2 | > 10 µM | – | – | – | – | – | – | – | –
CC(=O)OC1=CC2(OC(C)=O)CC(C)(C)C1C1C(=O)C=CC(=O)C12 (stereo not drawn) | > 100 µM | – | > 100 µM | > 100 | > 100 µM | > 100 µM | > 100 µM | > 100 | –
O=C1CN(c2cccc(Cl)c2)C(=O)CN1NCNN1CC(=O)N(c2cccc(Cl)c2)CC1=O | > 100 µM | – | – | – | – | – | – | – | –
NC(=S)N1N=C2c3ccccc3CC[C@H]2[C@@H]1c1ccc(Cl)cc1 | – | > 100 µM | > 100 µM | > 100 | > 100 µM | 60.6 µM | > 100 µM | – | –
CC(=O)Nc1n[n+]([O-])c2cc(C)ccc2[n+]1[O-] | 14.9 µM | – | – | – | – | – | – | – | –
CC1(C)O[C@@H]2C[C@H]3[C@@H]4C[C@H](F)C5=CC(=O)C=C[C@]5(C)[C@@]4(F)[C@@H](O)C[C@]3(C)[C@]2(C(=O)CO)O1 | > 100 µM | – | – | – | – | – | – | – | –

Structure (SMILES) | TGI (MDA-N) | TGI (HOP-18 NSCLC) | TGI (KM20L2 colon) | TGI (SNB-78 CNS) [µM] | TGI (DLD-1 colon) | TGI (XF 498 CNS) | TGI (M19-MEL melanoma) | TGI (RXF-631 renal) [µM] | further results
CC(=O)c1ccc(NC(=O)C(=O)C(C#N)CC(C)(C)C=O)cc1 (stereo not drawn) | – | – | > 100 µM | > 100 | – | > 100 µM | > 100 µM | – | –
O=c1c2cc3c(cc2c2cccc4c2n1CCC4)OCO3 | – | > 100 µM | > 100 µM | > 100 | > 100 µM | – | > 100 µM | – | –
C=C(C(=C)P(=S)(C(C)C)C(C)C)P(=S)(C(C)C)C(C)C | – | – | > 100 µM | > 100 | > 100 µM | > 100 µM | > 100 µM | > 100 | –
O=c1[nH]cnc2c(COCCO)c[nH]c12 | – | > 100 µM | > 100 µM | > 100 | > 100 µM | > 100 µM | > 100 µM | > 100 | –
COc1ccc2c(c1)-c1nn(CCCN(C)C)c3ccc([N+](=O)[O-])c(c13)N2 | 2.53 µM and 3.61 µM | 13.6 µM and 21 µM | 4.98 µM and 10.9 µM | – | 5.24 µM and 6.12 µM | 2.34 µM and 16.2 µM | 3.39 µM and 11.8 µM | – | GI50 (KM20L2 colon): 0.0855 µM and 0.49 µM; GI50 (MDA-N): 0.159 µM and 0.503 µM; TGI (P388/ADR leukemia): 0.925 µM; GI50 (XF 498 CNS): 0.443 µM and 2.91 µM; GI50 (M19-MEL melanoma): 0.255 µM and 0.545 µM; TGI (SN12K1 renal): 0.682 µM; TGI (P388 leukemia): 0.666 µM
O=c1cccc(-c2cccc(=O)[nH]2)[nH]1 | – | > 100 µM | – | > 100 | > 100 µM | – | > 100 µM | > 100 | –
CCN1C(=NCCO)NS(=O)(=O)c2ccccc21 | > 100 µM | – | – | – | – | – | – | – | –
NC(=O)CC(N=Cc1nc(-c2ccccc2)oc1O)C(=O)O (stereo not drawn) | – | > 100 µM | > 100 µM | > 100 | > 100 µM | – | > 100 µM | > 100 | –
CC1OC(CC(=O)O)CC2=C1C(=O)c1c(O)cccc1C2=O (stereo not drawn) | 0.518 µM | 3.88 µM | 1.2 µM | 0.383 | 0.0781 µM | 0.324 µM | 0.213 µM | 3.01 | –
O=C(NCCCl)SCCO | – | – | > 100 µM | > 100 | > 100 µM | – | > 100 µM | > 100 | –
CCC1(CN(C)C)CC/C(=C\c2ccc(OC)c(OC)c2)C1=O (stereo not drawn) | – | > 100 µM | > 100 µM | > 100 | > 100 µM | > 100 µM | > 100 µM | > 100 | –
COc1cccc(N2C(=O)C3C4C=C5c6ccccc6N(c6ccccc6)C5(C3C2=O)[C@H]2C(=O)N(c3cccc(OC)c3)C(=O)[C@@H]42)c1 (stereo partly drawn) | – | > 100 µM | > 100 µM | > 100 | > 100 µM | > 100 µM | > 100 µM | > 100 | –
Cc1c2c(c(C)c3c1[nH]c1ccccc13)CN(C)CC2 | – | > 100 µM | 41.6 µM | 55.9 | > 100 µM | – | 30.7 µM | 89.7 | –
COC(=O)Cc1cc(=O)[nH]c2c1C(=O)CCC2 | – | > 100 µM | – | – | > 100 µM | > 100 µM | – | – | –
Cc1ccc(S(=O)(=O)N/N=C/C(C)C)cc1 | – | > 100 µM | > 100 µM | > 100 | > 100 µM | – | > 100 µM | > 100 | –
Cc1ccc(C2NC(=O)c3ccccc3N2)c(C)c1 (stereo not drawn) | 0.701 µM | – | – | – | – | – | – | – | –
CN(C)c1cccc(F)c1C(=O)NC(=O)Nc1ccc(Cl)cc1 | 0.762 µM | – | – | – | – | – | – | – | –
CC(=O)c1ccc(NC(=O)COC(=O)c2cccc3c(=O)c4ccccc4[nH]c23)cc1 | – | > 100 µM | > 100 µM | > 100 | > 100 µM | 55.5 µM | > 100 µM | > 100 | –
O=C1CCCCC12CCC/C2=N\O (stereo not drawn) | – | > 100 µM | > 100 µM | > 100 | > 100 µM | – | > 100 µM | > 100 | –
O=[N+]([O-])c1cc2no[n+]([O-])c2cc1N1CCCCC1 | 7.06 µM | – | – | – | – | – | – | – | –
OCCN(CCO)c1cccc(N(CCO)CCO)n1 | – | – | > 100 µM | > 100 | > 100 µM | > 100 µM | > 100 µM | > 100 | –
COc1cc2ccnc3c(=C(SC)SC)c(=O)c(c1OC)c23 | – | 26.7 µM | 32.6 µM | – | 29.5 µM | – | 30.2 µM | 28.9 | –
O=C1OC(=O)C2C3C=CC(C12)C1C2C=CC2C31 (stereo not drawn) | – | > 100 µM | > 100 µM | – | – | > 100 µM | > 100 µM | > 100 | –
CC(C)(C)N/N=C(\C(=O)NC1=C(Cl)C(=O)c2ccccc2C1=O)C1C=CCS1(=O)=O (stereo not drawn) | 6.33 µM | – | – | – | – | – | – | – | –
